Data: the NIST ThermoML archive (doi:10.1021/je400667c)

Test: mn = molality of the nth substance listed, in mol/kg
Conditions: for surface tension liquid-gas: Maximal bubble pressure; for mass density / electrical conductivity: 100 kPa, Liquid; for mass density: Vibrating tube method; for electrical conductivity: Frequency=0.003 MHz, Alternating current cell with electrodes

CCCCCCCCCCCCCCCCOCCOCCOCCOCCOCCOCCOCCOCCOCCOCCOCCOCCOCCOCCOCCOCCOCCOCCOCCOCCO + O
Conditions | mass density [kg/m3] | surface tension liquid-gas [mN/m]
298.15 K, m1 = 0.0005 | 995.7 | –
298.15 K, m1 = 0.00199 | – | 68.7
298.15 K, m1 = 0.00251 | – | 66
298.15 K, m1 = 0.00316 | – | 64.2
298.15 K, m1 = 0.00398 | – | 63.2
298.15 K, m1 = 0.00501 | – | 61.3
298.15 K, m1 = 0.00708 | – | 59.4
298.15 K, m1 = 0.01 | – | 56.9
298.15 K, m1 = 0.01413 | – | 55.3
298.15 K, m1 = 0.02239 | – | 53.2
298.15 K, m1 = 0.02818 | – | 52.4
298.15 K, m1 = 0.03162 | – | 52.1
298.15 K, m1 = 0.03981 | – | 52.1
298.15 K, m1 = 0.05 | 997.07 | –
298.15 K, m1 = 0.05012 | – | 51.9
298.15 K, m1 = 0.0631 | – | 51.9
303.15 K, m1 = 0.0005 | 995.58 | –
303.15 K, m1 = 0.002 | – | 65.5
303.15 K, m1 = 0.00251 | – | 64
303.15 K, m1 = 0.00316 | – | 62.5
303.15 K, m1 = 0.00398 | – | 61
303.15 K, m1 = 0.00501 | – | 59.5
303.15 K, m1 = 0.00708 | – | 57.5
303.15 K, m1 = 0.01 | – | 55.8
303.15 K, m1 = 0.01413 | – | 53
303.15 K, m1 = 0.02239 | – | 51
303.15 K, m1 = 0.02818 | – | 50.8
303.15 K, m1 = 0.03162 | – | 50.7
303.15 K, m1 = 0.03981 | – | 50.7
303.15 K, m1 = 0.05 | 996.92 | –
303.15 K, m1 = 0.05012 | – | 50.6
303.15 K, m1 = 0.0631 | – | 50.6
308.15 K, m1 = 0.0005 | 995.44 | –
308.15 K, m1 = 0.002 | – | 63.1
308.15 K, m1 = 0.00251 | – | 62.4
308.15 K, m1 = 0.00316 | – | 60.2
308.15 K, m1 = 0.00398 | – | 59.1
308.15 K, m1 = 0.00501 | – | 57.1
308.15 K, m1 = 0.00708 | – | 55.3
308.15 K, m1 = 0.01 | – | 53.6
308.15 K, m1 = 0.01429 | – | 51.2
308.15 K, m1 = 0.02239 | – | 49.4
308.15 K, m1 = 0.02818 | – | 48.8
308.15 K, m1 = 0.03162 | – | 48.3
308.15 K, m1 = 0.03981 | – | 48.3
308.15 K, m1 = 0.05 | 996.78 | –
308.15 K, m1 = 0.05012 | – | 48.3
308.15 K, m1 = 0.0631 | – | 48.3
313.15 K, m1 = 0.0005 | 995.3 | –
313.15 K, m1 = 0.002 | – | 61.8
313.15 K, m1 = 0.00251 | – | 60.2
313.15 K, m1 = 0.00316 | – | 58.3
313.15 K, m1 = 0.00398 | – | 57.1
313.15 K, m1 = 0.00501 | – | 55.5
313.15 K, m1 = 0.00708 | – | 53.6
313.15 K, m1 = 0.01 | – | 51.7
313.15 K, m1 = 0.01429 | – | 50
313.15 K, m1 = 0.02239 | – | 47.7
313.15 K, m1 = 0.02818 | – | 46.8
313.15 K, m1 = 0.03162 | – | 46.5
313.15 K, m1 = 0.03981 | – | 46.4
313.15 K, m1 = 0.05 | 996.64 | –
313.15 K, m1 = 0.05012 | – | 46.3
313.15 K, m1 = 0.0631 | – | 46.3

CCCCCCCCCCCCCCCC[n+]1ccccc1.[Br-] [1-hexadecylpyridinium bromide] + O
Conditions | electrical conductivity, 298.15 K [S/m] | electrical conductivity, 303.15 K [S/m] | electrical conductivity, 308.15 K [S/m] | electrical conductivity, 313.15 K [S/m] | mass density, 298.15 K [kg/m3] | mass density, 303.15 K [kg/m3] | mass density, 308.15 K [kg/m3] | mass density, 313.15 K [kg/m3]
m1 = 0.0005 | – | – | – | – | 996.54 | 995.89 | 995.18 | 994.58
m1 = 0.001 | 0.000196 | 0.000252 | 0.000326 | 0.000401 | – | – | – | –
m1 = 0.0015 | 0.000304 | 0.000359 | 0.000436 | 0.000536 | – | – | – | –
m1 = 0.0025 | 0.00044 | 0.000505 | 0.000566 | 0.000684 | – | – | – | –
m1 = 0.004 | 0.000742 | 0.000807 | 0.000884 | 0.00101 | – | – | – | –
m1 = 0.005 | 0.00105 | 0.0011 | 0.00109 | 0.00135 | – | – | – | –
m1 = 0.007 | 0.00135 | 0.00141 | 0.00148 | 0.00156 | – | – | – | –
m1 = 0.009 | 0.00174 | 0.0018 | 0.00187 | 0.00202 | – | – | – | –
m1 = 0.01 | 0.00192 | 0.00201 | 0.00206 | 0.00236 | – | – | – | –
m1 = 0.013 | 0.00236 | 0.00241 | 0.00247 | 0.00259 | – | – | – | –
m1 = 0.015 | 0.00263 | 0.00271 | 0.00276 | 0.00298 | – | – | – | –
m1 = 0.018 | 0.00313 | 0.0031 | 0.00318 | 0.00336 | – | – | – | –
m1 = 0.02 | 0.00345 | 0.0035 | 0.00349 | 0.00384 | – | – | – | –
m1 = 0.024 | 0.00403 | 0.00411 | 0.00416 | 0.00469 | – | – | – | –
m1 = 0.027 | 0.00443 | 0.00451 | 0.00458 | 0.00497 | – | – | – | –
m1 = 0.05 | – | – | – | – | 998.25 | 997.33 | 996.34 | 995.46

CCCCCCCCCCCCOS(=O)(=O)[O-].[Na+] [sodium dodecyl sulfate] + O
Conditions | electrical conductivity, 298.15 K [S/m] | electrical conductivity, 303.15 K [S/m] | electrical conductivity, 308.15 K [S/m] | electrical conductivity, 313.15 K [S/m] | mass density, 298.15 K [kg/m3] | mass density, 303.15 K [kg/m3] | mass density, 308.15 K [kg/m3] | mass density, 313.15 K [kg/m3]
m1 = 0.0005 | – | – | – | – | 994.78 | 994.12 | 993.69 | 993.15
m1 = 0.00086 | 0.000225 | 0.000289 | 0.000342 | 0.000403 | – | – | – | –
m1 = 0.00135 | 0.000346 | 0.000386 | 0.000457 | 0.000515 | – | – | – | –
m1 = 0.00161 | 0.000432 | 0.000497 | 0.000568 | 0.00063 | – | – | – | –
m1 = 0.00172 | 0.000542 | 0.000598 | 0.000663 | 0.000713 | – | – | – | –
m1 = 0.0023 | 0.000768 | 0.000813 | 0.00087 | 0.000946 | – | – | – | –
m1 = 0.00342 | 0.000984 | 0.00105 | 0.00113 | 0.0012 | – | – | – | –
m1 = 0.005 | 0.00144 | 0.0015 | 0.00159 | 0.00169 | – | – | – | –
m1 = 0.00681 | 0.00177 | 0.00193 | 0.00189 | 0.00207 | – | – | – | –
m1 = 0.0075 | 0.00203 | 0.00211 | 0.0022 | 0.00233 | – | – | – | –
m1 = 0.0108 | 0.00264 | 0.00269 | 0.00279 | 0.00295 | – | – | – | –
m1 = 0.01283 | 0.00293 | 0.00299 | 0.00305 | 0.00322 | – | – | – | –
m1 = 0.01582 | 0.00335 | 0.0034 | 0.00353 | 0.00373 | – | – | – | –
m1 = 0.01974 | 0.00392 | 0.00398 | 0.00412 | 0.00432 | – | – | – | –
m1 = 0.02351 | 0.00445 | 0.0044 | 0.00455 | 0.00468 | – | – | – | –
m1 = 0.02665 | 0.00483 | 0.00487 | 0.00487 | 0.00507 | – | – | – | –
m1 = 0.05 | – | – | – | – | 994.74 | 994.19 | 993.64 | 993.11
